In patent US20250170248A1, “SMARCA DEGRADERS AND USES THEREOF” (Kymera Therapeutics, Inc., priority 2021, published 2025):

Legend:
Type in all cases: cell-based
SMARCA2 [1] = target: T1, SMARCA2 (Homo sapiens, UniProt P51531); experiment: MSD SMARCA2 degradation in A549 cell line; conditions: for Dmax: A549, A549 cells; for Dmax / DC50: 24 h; for DC50: read-out: SMARCA2 MSD A549 degradation 24 h: Average external-Abs DC50
Procedure, shortened: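 SMARCA2 protein remaining after 24 h exposure of A549 cells (top concentration 1000 nM, 3-fold dilutions) was measured by MSD electrochemiluminescence immunoassay of cell lysates. Results are given as binned DC50 and maximal degradation (Dmax) codes.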

SMARCA4 = target: T2, SMARCA4 (Homo sapiens, UniProt P51532); experiment: SMARCA4 Western blot degradation in MV4-11 cells; conditions: for Dmax: MV4-11, MV4-11 cells, read-out: SMARCA4 MSD MV411 degradation 24 h: average Dmax %; for Dmax / DC50: 24 h; for DC50: read-out: SMARCA4 MSD MV411 degradation 24 h: Mean external-Abs DC50
T2 construct: SMARCA2/SMARCA4 protein degradation selectivity in MV4-11 cells; endogenous in cells; host or cells: MV4-11
Procedure, shortened: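 Protein levels quantified by LI-COR Western blot (beta-actin loading control) in RIPA lysates of MV4-11 cells after 24 h compound exposure. Degradation reported as DC50, Dmax % at 24 h and SMARCA2 vs SMARCA4 selectivity, each binned into letter codes.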

SMARCA2 [2] = target: T1, SMARCA2; experiment: SMARCA2 Western blot degradation in MV4-11 cells; set-up: SMARCA2/SMARCA4 protein degradation selectivity in MV4-11 cells; endogenous in cells; host or cells: MV4-11; conditions: for Dmax: MV4-11, MV4-11 cells, read-out: SMARCA2 MSD MV411 degradation 24 h: average Dmax %; for DC50: read-out: SMARCA2 MSD MV411 degradation 24 h: Mean external-Abs DC50; for Selectivity in MV411: SMARCA2/4 selectivity

T2 sequence (P51532 whole entry): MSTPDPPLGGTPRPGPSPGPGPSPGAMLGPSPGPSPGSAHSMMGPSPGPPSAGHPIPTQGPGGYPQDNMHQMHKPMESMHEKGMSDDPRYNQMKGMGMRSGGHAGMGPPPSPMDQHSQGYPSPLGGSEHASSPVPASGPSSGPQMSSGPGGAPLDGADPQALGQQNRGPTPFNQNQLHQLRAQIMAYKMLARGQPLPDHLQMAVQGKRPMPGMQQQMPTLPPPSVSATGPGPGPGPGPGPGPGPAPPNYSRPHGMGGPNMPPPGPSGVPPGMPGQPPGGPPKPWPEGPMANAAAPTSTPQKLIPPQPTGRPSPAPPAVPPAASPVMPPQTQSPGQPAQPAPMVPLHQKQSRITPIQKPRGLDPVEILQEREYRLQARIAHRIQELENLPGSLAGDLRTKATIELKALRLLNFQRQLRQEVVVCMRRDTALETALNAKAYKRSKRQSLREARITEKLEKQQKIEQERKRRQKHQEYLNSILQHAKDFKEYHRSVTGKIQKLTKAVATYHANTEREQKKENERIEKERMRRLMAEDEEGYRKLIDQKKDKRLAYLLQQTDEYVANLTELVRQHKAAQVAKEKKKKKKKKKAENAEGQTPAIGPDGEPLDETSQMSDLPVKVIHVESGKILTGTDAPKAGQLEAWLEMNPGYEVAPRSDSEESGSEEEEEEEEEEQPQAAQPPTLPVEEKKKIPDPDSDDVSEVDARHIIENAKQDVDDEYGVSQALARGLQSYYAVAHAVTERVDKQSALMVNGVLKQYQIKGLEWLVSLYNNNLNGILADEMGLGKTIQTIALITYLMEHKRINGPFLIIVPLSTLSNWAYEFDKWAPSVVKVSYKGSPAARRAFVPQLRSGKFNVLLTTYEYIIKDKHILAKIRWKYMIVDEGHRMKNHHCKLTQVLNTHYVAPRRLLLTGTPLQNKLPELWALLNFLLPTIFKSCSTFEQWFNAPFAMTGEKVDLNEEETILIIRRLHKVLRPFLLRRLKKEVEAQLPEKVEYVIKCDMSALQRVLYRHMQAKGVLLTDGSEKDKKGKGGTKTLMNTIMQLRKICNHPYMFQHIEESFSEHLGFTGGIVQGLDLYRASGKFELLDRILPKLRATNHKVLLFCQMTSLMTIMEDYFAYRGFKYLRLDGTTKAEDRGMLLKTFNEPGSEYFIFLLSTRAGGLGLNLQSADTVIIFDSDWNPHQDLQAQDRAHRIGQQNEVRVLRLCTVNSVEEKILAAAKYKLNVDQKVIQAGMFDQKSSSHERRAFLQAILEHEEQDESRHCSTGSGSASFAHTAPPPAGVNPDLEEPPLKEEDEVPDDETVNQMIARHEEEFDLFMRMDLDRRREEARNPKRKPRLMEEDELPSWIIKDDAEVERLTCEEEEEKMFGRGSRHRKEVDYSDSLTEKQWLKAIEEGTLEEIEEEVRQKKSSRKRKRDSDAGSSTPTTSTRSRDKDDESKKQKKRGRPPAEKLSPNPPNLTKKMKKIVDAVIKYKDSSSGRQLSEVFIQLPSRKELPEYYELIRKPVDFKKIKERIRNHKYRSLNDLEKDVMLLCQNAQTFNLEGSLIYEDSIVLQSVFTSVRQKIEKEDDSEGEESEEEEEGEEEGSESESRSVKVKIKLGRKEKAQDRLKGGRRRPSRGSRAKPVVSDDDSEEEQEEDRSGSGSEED
T1 sequence (P51531 whole entry): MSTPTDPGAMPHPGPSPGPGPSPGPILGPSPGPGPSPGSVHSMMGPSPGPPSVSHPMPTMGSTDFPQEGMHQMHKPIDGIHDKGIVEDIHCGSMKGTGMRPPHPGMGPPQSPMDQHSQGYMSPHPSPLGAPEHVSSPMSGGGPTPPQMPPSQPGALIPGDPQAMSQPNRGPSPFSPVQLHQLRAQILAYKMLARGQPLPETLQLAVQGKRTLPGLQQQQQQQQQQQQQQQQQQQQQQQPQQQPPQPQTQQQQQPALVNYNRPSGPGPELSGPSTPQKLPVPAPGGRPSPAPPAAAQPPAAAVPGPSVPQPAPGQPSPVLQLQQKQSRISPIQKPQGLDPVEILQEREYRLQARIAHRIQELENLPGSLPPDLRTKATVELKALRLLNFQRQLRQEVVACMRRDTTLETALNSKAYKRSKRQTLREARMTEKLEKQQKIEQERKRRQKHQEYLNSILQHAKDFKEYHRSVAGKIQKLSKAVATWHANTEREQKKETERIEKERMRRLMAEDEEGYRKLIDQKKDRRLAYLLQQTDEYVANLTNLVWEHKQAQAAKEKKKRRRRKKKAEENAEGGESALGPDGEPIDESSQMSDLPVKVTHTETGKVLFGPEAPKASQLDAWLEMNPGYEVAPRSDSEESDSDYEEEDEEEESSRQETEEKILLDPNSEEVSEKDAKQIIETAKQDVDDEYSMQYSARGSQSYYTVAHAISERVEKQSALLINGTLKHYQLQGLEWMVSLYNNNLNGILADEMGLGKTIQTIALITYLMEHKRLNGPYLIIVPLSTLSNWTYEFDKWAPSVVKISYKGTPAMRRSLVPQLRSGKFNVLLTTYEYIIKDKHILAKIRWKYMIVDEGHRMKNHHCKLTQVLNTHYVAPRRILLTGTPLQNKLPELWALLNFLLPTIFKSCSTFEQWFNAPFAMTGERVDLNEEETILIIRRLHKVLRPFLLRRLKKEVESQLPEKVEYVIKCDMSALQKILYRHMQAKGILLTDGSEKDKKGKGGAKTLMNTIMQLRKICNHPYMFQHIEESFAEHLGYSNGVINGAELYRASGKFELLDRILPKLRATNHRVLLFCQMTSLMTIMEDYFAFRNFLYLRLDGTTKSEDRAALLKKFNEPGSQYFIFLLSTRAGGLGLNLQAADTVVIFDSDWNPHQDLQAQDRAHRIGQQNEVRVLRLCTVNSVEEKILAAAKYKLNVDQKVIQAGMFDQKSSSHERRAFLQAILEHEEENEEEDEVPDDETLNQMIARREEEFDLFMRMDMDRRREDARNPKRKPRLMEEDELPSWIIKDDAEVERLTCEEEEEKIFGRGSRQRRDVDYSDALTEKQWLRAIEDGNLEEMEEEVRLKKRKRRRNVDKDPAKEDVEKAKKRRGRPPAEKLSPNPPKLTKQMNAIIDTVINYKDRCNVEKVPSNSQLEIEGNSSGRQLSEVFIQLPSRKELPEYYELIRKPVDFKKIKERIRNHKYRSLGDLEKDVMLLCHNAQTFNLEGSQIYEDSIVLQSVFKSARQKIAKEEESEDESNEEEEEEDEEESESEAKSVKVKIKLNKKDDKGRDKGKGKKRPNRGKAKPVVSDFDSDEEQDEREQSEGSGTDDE

With `C#Cc1ccc(CNC(=O)[C@@H]2C[C@@H](O)CN2C(=O)[C@@H](NC(=O)[C@H]2CC3(C2)C[C@H](c2cnc(N4CCC(N5CCN6c7cc(-c8ccccc8O)nnc7NC[C@H]6C5)CC4)nc2)C3)C(C)(C)C)cc1` (single isomer, unassigned) [I-301] the Dmax (SMARCA2 [1]) was > 90%, the DC50 (SMARCA2 [1]; A549 cells) was 10 to 50 nM and the Dmax (SMARCA4) was > 90%. The DC50 (SMARCA4; MV4-11 cells) was 10 to 100 nM, the Dmax (SMARCA2 [2]; 24 h) was > 90% and the DC50 (SMARCA2 [2]; MV4-11 cells, 24 h) was 1 to 10 nM. The “Selectivity in MV411” value (SMARCA2 [2]; MV4-11 cells) was “C (C (10-100 fold))”.

With `C#Cc1ccc([C@H](CO)NC(=O)[C@@H]2C[C@@H](O)CN2C(=O)[C@@H](NC(=O)N2CC3(CC(N4CCC(c5cnc(N6CCc7[nH]c8nnc(-c9ccccc9O)cc8c7[C@H]6C)nc5)CC4)C3)C2)C(C)(C)C)nc1` (single isomer, unassigned) [I-304] the Dmax (SMARCA2 [1]) was > 90%, the DC50 (SMARCA2 [1]; A549 cells) was 50 to 100 nM and the Dmax (SMARCA4) was < 50%. The DC50 (SMARCA4; MV4-11 cells) was > 100 nM, the Dmax (SMARCA2 [2]; 24 h) was 70 to 90% and the DC50 (SMARCA2 [2]; MV4-11 cells, 24 h) was 1 to 10 nM. For the same compound, the “Selectivity in MV411” value (SMARCA2 [2]; MV4-11 cells) was “B (B (>100-500 fold))”.

With `C#Cc1ccc(CNC(=O)[C@@H]2C[C@@H](O)CN2C(=O)[C@H](NC(=O)[C@H]2CCC3(CC2)C[C@H](N2CCN(c4cnc(N5CCN6c7cc(-c8ccccc8O)nnc7NC[C@H]6C5)nc4)CC2)C3)C(C)(C)CCO)c(Cl)c1` (single isomer, unassigned) [I-306] the Dmax (SMARCA2 [1]) was < 50%, the DC50 (SMARCA2 [1]; A549 cells) was > 100 nM and the Dmax (SMARCA4) was < 50%. The DC50 (SMARCA4; MV4-11 cells) was > 100 nM, the Dmax (SMARCA2 [2]; 24 h) was < 50% and the DC50 (SMARCA2 [2]; MV4-11 cells, 24 h) was > 100 nM. For the same compound, the “Selectivity in MV411” value (SMARCA2 [2]; MV4-11 cells) was “D (D (<10 fold))”.

`C#Cc1ccc(CNC(=O)[C@@H]2C[C@@H](O)CN2C(=O)[C@@H](NC(=O)[C@H]2CCC3(CC2)C[C@H](N2CCN(c4cnc(N5CCN6c7cc(-c8ccccc8O)nnc7NC[C@H]6C5)nc4)CC2)C3)C(C)(C)CCO)c(Cl)c1` (single isomer, unassigned) [I-311] was tested, and the Dmax (SMARCA2 [1]) was > 90%, the DC50 (SMARCA2 [1]; A549 cells) was 10 to 50 nM and the Dmax (SMARCA4) was 70 to 90%. For the same compound, the DC50 (SMARCA4; MV4-11 cells) was > 100 nM, the Dmax (SMARCA2 [2]; 24 h) was 70 to 90% and the DC50 (SMARCA2 [2]; MV4-11 cells, 24 h) was 1 to 10 nM. For the same compound, the “Selectivity in MV411” value (SMARCA2 [2]; MV4-11 cells) was “C (C (10-100 fold))”.

In the case of `C#Cc1ccc(CNC(=O)[C@@H]2C[C@@H](O)CN2C(=O)[C@@H](NC(=O)[C@H]2CCC3(CC2)C[C@H](N2CCN(c4cnc(N5CCN6c7cc(-c8ccccc8O)nnc7NC[C@H]6C5)nc4)CC2)C3)C(C)(C)CCO)c(Cl)c1` (single isomer, unassigned) [I-312], the “SMARCA2 MSD A549 degradation 24 h: Average Dmax %” value (SMARCA2 [1]; A549 cells) is reported as “A (A (>90% degradation))”, the DC50 (SMARCA2 [1]; A549 cells) is reported as 10 to 50 nM and the “SMARCA4 MSD MV411 degradation 24 h: average Dmax %” value (SMARCA4; MV4-11 cells) is reported as “D (D (<50% degradation))”. For the same compound, the DC50 (SMARCA4; MV4-11 cells) was > 100 nM, the “SMARCA2 MSD MV411 degradation 24 h: average Dmax %” value (SMARCA2 [2]; MV4-11 cells, 24 h) was “B (B (>70-90% degradation))” and the DC50 (SMARCA2 [2]; MV4-11 cells, 24 h) was 10 to 100 nM. For the same compound, the “Selectivity in MV411” value (SMARCA2 [2]; MV4-11 cells) was “B (B (>100-500 fold))”.

With `C#Cc1ccc(CNC(=O)[C@@H]2C[C@@H](O)CN2C(=O)[C@H](NC(=O)N2CC3(CC(N4CCC(c5cnc(N6CCc7[nH]c8nnc(-c9ccccc9O)cc8c7[C@H]6C)nc5)CC4)C3)C2)C(C)(C)CCO)c(Cl)c1` (single isomer, unassigned) [I-316] the Dmax (SMARCA2 [1]) was < 50%, the DC50 (SMARCA2 [1]; A549 cells) was > 100 nM and the Dmax (SMARCA4) was < 50%. The DC50 (SMARCA4; MV4-11 cells) was > 100 nM, the Dmax (SMARCA2 [2]; 24 h) was < 50% and the DC50 (SMARCA2 [2]; MV4-11 cells, 24 h) was > 100 nM. For the same compound, the “Selectivity in MV411” value (SMARCA2 [2]; MV4-11 cells) was “C (C (10-100 fold))”.

For `C#Cc1ccc(CNC(=O)[C@@H]2C[C@@H](O)CN2C(=O)[C@@H](NC(=O)N2CC3(CC(N4CCC(c5cnc(N6CCc7[nH]c8nnc(-c9ccccc9O)cc8c7[C@H]6C)nc5)CC4)C3)C2)C(C)(C)CCO)c(Cl)c1` (single isomer, unassigned) [I-317], the Dmax (SMARCA2 [1]) was > 90%, the DC50 (SMARCA2 [1]; A549 cells) was 10 to 50 nM and the Dmax (SMARCA4) was 70 to 90%. The DC50 (SMARCA4; MV4-11 cells) was > 100 nM, the Dmax (SMARCA2 [2]; 24 h) was 70 to 90% and the DC50 (SMARCA2 [2]; MV4-11 cells, 24 h) was 1 to 10 nM. For the same compound, the “Selectivity in MV411” value (SMARCA2 [2]; MV4-11 cells) was “C (C (10-100 fold))”.

In the case of `C#Cc1cc(Cl)c(CNC(=O)[C@@H]2C[C@@H](O)CN2C(=O)[C@@H](NC(=O)[C@H]2CC3(C2)C[C@H](N2CCC(N4CCC(N5CCN6c7cc(-c8ccccc8O)nnc7NC[C@H]6C5)CC4)CC2)C3)C(C)(C)C)c(OC)c1` (single isomer, unassigned) [I-328], the Dmax (SMARCA2 [1]) is reported as < 50%, the DC50 (SMARCA2 [1]; A549 cells) is reported as > 100 nM and the Dmax (SMARCA4) is reported as < 50%. The DC50 (SMARCA4; MV4-11 cells) was > 100 nM, the Dmax (SMARCA2 [2]; 24 h) was < 50% and the DC50 (SMARCA2 [2]; MV4-11 cells, 24 h) was > 100 nM. The “Selectivity in MV411” value (SMARCA2 [2]; MV4-11 cells) was “D (D (<10 fold))”.

`C#Cc1cnc(CNC(=O)[C@@H]2C[C@@H](O)CN2C(=O)[C@@H](NC(=O)[C@H]2CC3(C2)C[C@H](N2CCC(N4CCC(N5CCN6c7cc(-c8ccccc8O)nnc7NC[C@H]6C5)CC4)CC2)C3)C(C)(C)C)c(OC)c1` (single isomer, unassigned) [I-330] was tested, and the Dmax (SMARCA2 [1]) was 50 to 70%, the DC50 (SMARCA2 [1]; A549 cells) was > 100 nM and the Dmax (SMARCA4) was < 50%. For the same compound, the DC50 (SMARCA4; MV4-11 cells) was > 100 nM, the Dmax (SMARCA2 [2]; 24 h) was 50 to 70% and the DC50 (SMARCA2 [2]; MV4-11 cells, 24 h) was > 100 nM. For the same compound, the “Selectivity in MV411” value (SMARCA2 [2]; MV4-11 cells) was “C (C (10-100 fold))”.
